Laboratory results from patent US4000281A, “Pyrazole derivatives” (priority 1971, dated 1976).
Converted amounts (≈) assume the structure as drawn. Where two headings read alike, the source gives them in different places.

Columns and labels:
Influenza virus Swine A = assay type: in vivo, mice; conditions: 500 mg/kg IP
[1] = test system: rhinovirus type 3 (prototype); assay: Inhibition of rhinovirus cytopathogenic effect in human embryonic lung cultures, type 3; assay type: cell-based; conditions: 50 and 75 μgm/ml
Procedure: (§1) Other tests were carried out to determine the inhibitory effect of 3-(4-pyridyl)-4-(2-hydroxyphenyl)-5-ethylpyrazole on various types of rhinovirus.
(§2) In each test two cultures of human embryonic lung were prepared of which one was treated with the above compound while the other served as control. The cultures were then infected with a strain of rhinovirus. The compound was used in concentrations of 50 and 75 μgm/ml and was considered to be active if the cytopathogenic effect of the rhinovirus was reduced by at least 75% as compared to the control culture. This cytopathogenic effect was determined by counting the number of plaques formed by destroyed cells.
(§3) Seven human types of rhinovirus were employed and the following results registered: […]

[2] = test system: rhinovirus type 14 (strain 1059); assay: Gradient plate plaque-reduction technique in HeLa cells, rhinovirus type 14; assay type: cell-based, human; design: key to ACTIVITY: +: active; -: inactive
Procedure: (§4) A further series of tests was performed in which the inhibitory concentrations of 3-(4-pyridyl)-4-(2-hydroxyphenyl)-5-ethylpyrazole against various human types of rhinovirus were determined by the gradient plate plaque-reduction technique. Cultures of HeLa cancer cells were used of which two were prepared for each test. One culture was treated with the above compound which was applied in gradient while the other culture served as control. Both cultures were then infected with a human type of rhinovirus. The inhibitory concentration was determined by measuring the zone of inhibition on the cellsheet. Six types of rhinovirus were employed and the following results registered.

Influenza Swine A = assay: animal or person; assay type: in vivo, mice; conditions: in Mus musculus, 48 h, read-out: Log Reductions (EID50) as compared with controls
Influenza Jap 305 = assay: 48-Hour Mouse Test (Test No. 2), Influenza Jap 305; assay type: in vivo, mice; conditions: read-out: Log Reductions (EID50) as compared with controls
[3] = test system: Influenza virus Maryland B; assay: Mouse-Survival Test (Test No. 1), Influenza Maryland B; assay type: in vivo, mice; conditions: for Survival Percent: virus dose 79 multiples of LD50; for S.I.: virus dose 79 multiples of LD50, significant if >1.24
Herpes = assay: Herpes-induced keratitis in the rabbit eye; assay type: in vivo; conditions: local use, 2, 1 and 0.5%
Procedure: Another test was carried out with this same compound in order to evaluate its action against Herpes-induced keratitis in the rabbit eye.

Herpes Simplex [4] = assay: microbe, parasite or virus in culture; assay type: cell-based, rabbit; conditions: Oryctolagus cuniculus, 96 h; dose of 250 μg; tissue first infected, compound in overlay; 50% considered significant; read-out: plaque-reduction
Influenza virus = assay type: in vivo, mice; conditions: for S.I. / Survival Percent / MDD (Mean Day of Death): intranasal 10% suspension, 25 multiples of LD50; for MDD (Mean Day of Death): virus alone 6.20
[5] = test system: rhinovirus type 50 (strain A2 No.58); assay: Gradient plate plaque-reduction technique in HeLa cells, rhinovirus type 50; assay type: cell-based, human; design: key: +: active
Procedure: as §4

[6] = test system: rhinovirus type 14 (prototype); assay: Inhibition of rhinovirus cytopathogenic effect in human embryonic lung cultures, type 14; assay type: cell-based; conditions: 50 and 75 μgm/ml
Procedure: as §1, §2, §3

Influenza virus Jap 305 = assay: Mouse-Survival Test (Test No. 1), Influenza Jap 305; assay type: in vivo, mice; conditions: for S.I.: significant if >1.24
[7] = test system: rhinovirus type 8 (prototype); assay: Inhibition of rhinovirus cytopathogenic effect in human embryonic lung cultures, type 8; assay type: cell-based; conditions: 50 and 75 μgm/ml
Procedure: as §1, §2, §3

[8] = test system: rhinovirus type 44 (strain F01 3744); assay: Gradient plate plaque-reduction technique in HeLa cells, rhinovirus type 44; assay type: cell-based, human; design: key to ACTIVITY: +: active; -: inactive
Procedure: as §4

Influenza PR8 = assay: 48-Hour Mouse Test (Test No. 2), Influenza PR8; assay type: in vivo, mice; conditions: virus dose not ascertained, read-out: Log Reductions (EID50) as compared with controls
Herpes Simplex [9] = assay: microbe, parasite or virus in culture; assay type: cell-based, rabbit; conditions: Oryctolagus cuniculus, 96 h; dose of 250 μg; virus pretreated with compound one hour; 50% considered significant; read-out: plaque-reduction
[10] = test system: rhinovirus type 27 (strain Cor. 28); assay: Gradient plate plaque-reduction technique in HeLa cells, rhinovirus type 27; assay type: cell-based, human; design: key to ACTIVITY: +: active
Procedure: as §4

[11] = test system: rhinovirus type 6 (SF1349); assay: Inhibition of rhinovirus cytopathogenic effect in human embryonic lung cultures, type 6; assay type: cell-based; conditions: 50 and 75 μgm/ml
Procedure: as §1, §2, §3

[12] = test system: rhinovirus type 5 (prototype); assay: Inhibition of rhinovirus cytopathogenic effect in human embryonic lung cultures, type 5; assay type: cell-based; conditions: 50 and 75 μgm/ml
Procedure: as §1, §2, §3

[13] = test system: rhinovirus type 9 (prototype); assay: Inhibition of rhinovirus cytopathogenic effect in human embryonic lung cultures, type 9; assay type: cell-based; conditions: 50 and 75 μgm/ml
Procedure: as §1, §2, §3

[14] = test system: rhinovirus type 39 (strain 209); assay: Gradient plate plaque-reduction technique in HeLa cells, rhinovirus type 39; assay type: cell-based, human; design: key: +: active
Procedure: as §4

[15] = test system: rhinovirus type 55 (strain Wis 315E); assay: Gradient plate plaque-reduction technique in HeLa cells, rhinovirus type 55; assay type: cell-based, human; design: key to ACTIVITY: +: active
Procedure: as §4

Influenza viruses = assay: Mouse-Survival Test (Test No. 1), Influenza virus strain not given; assay type: in vivo, mice; conditions: unidentified influenza virus, 360 h
[16] = Enterovirus, read-out: MINIMUM INHIBITORY Concentration
[17] = Jap 305, 5 mg/kg IP, virus dose 20 multiples of LD50
[18] = Jap 305, 50 mg/kg IP, virus dose 32 multiples of LD50
[19] = Jap 305, 50 mg/kg PO, virus dose 3.2 multiples of LD50
[20] = Jap 305, 500 mg/kg IP, virus dose 32 multiples of LD50
[21] = Jap 305, 500 mg/kg PO, virus dose 3.2 multiples of LD50
[22] = ip, read-out: Survival Index (S.I.)

With `CCc1[nH]nc(-c2ccncc2)c1-c1ccccc1O` [Compound A, 3-(4-pyridyl)-4-(2-hydroxyphenyl)-5-ethylpyrazole] the “Survival Percent” value (Influenza virus Swine A; virus dose 14 multiples of LD50) was 50%, the S.I. (Influenza virus Swine A; virus dose 14 multiples of LD50, significant if >1.24) was 1.52 and the ACTIVITY [1] was “+ (active)”. The ACTIVITY [2] was “-”, the MIC [2, 16] was 30 µg/mL (≈ 113 µM) and the log reduction at 50 mg/kg (Influenza Swine A; ip) was 1. The log reduction at 500 mg/kg (Influenza Swine A; ip) was 1.8, the log reduction at 5 mg/kg (Influenza Swine A; po) was 1.1 and the log reduction at 50 mg/kg (Influenza Swine A; po) was 1.4. It also gave a log reduction at 50 mg/kg (Influenza Jap 305; ip) of 1.53, a log reduction at 5 mg/kg (Influenza Jap 305; po) of 2 and a log reduction at 50 mg/kg (Influenza Jap 305; po) of 2.7. The log reduction at 500 mg/kg (Influenza Jap 305; po) was 2.5, the “Survival Percent” value ([3]; 500 mg/kg IP) was 10% and the S.I. ([3]; 500 mg/kg IP) was 1.47. For the same compound, the “Survival Percent” value ([3]; 500 mg/kg PO) was 12%, the S.I. ([3]; 500 mg/kg PO) was 1.52 and the “formation of geographic keratitic lesions as compared to infected control animals” value (Herpes) was “inhibited the formation of geographic keratitic lesions”. The inhibition at 250 µg (Herpes Simplex [4]) was 100%, the S.I. (Influenza virus; 30 min. before infection) was 1.90 and the “Survival Percent” value (Influenza virus; 30 min. before infection) was 40%. The “MDD (Mean Day of Death)” value (Influenza virus; 30 min. before infection) was 11.80 days, the S.I. (Influenza virus; 2 hr. before infection) was 2.07 and the “Survival Percent” value (Influenza virus; 2 hr. before infection) was 70%. For the same compound, the “MDD (Mean Day of Death)” value (Influenza virus; 2 hr. before infection) was 12.80 days, the S.I. (Influenza virus; 4 hr. before infection) was 1.88 and the “Survival Percent” value (Influenza virus; 4 hr. before infection) was 60%. For the same compound, the “MDD (Mean Day of Death)” value (Influenza virus; 4 hr. before infection) was 11.70 days, the S.I. (Influenza virus; 6 hr. before infection) was 1.90 and the “Survival Percent” value (Influenza virus; 6 hr. before infection) was 50%. For the same compound, the “MDD (Mean Day of Death)” value (Influenza virus; 6 hr. before infection) was 11.80 days, the “persistence of the effect: differences between times of administration” value (Influenza virus; mouse, in vivo) was “no significant differences” and the protective effect (Influenza virus; mouse, in vivo) was “definite protective effect at all times of administration”. For the same compound, the “survival period of the treated animals that did die, relative to controls” value (Influenza virus; mouse, in vivo) was “approximately twice that of the controls”, the ACTIVITY [5] was “+” and the ACTIVITY [6] was “+ (active)”. The “Survival Percent” value (Influenza virus Jap 305; [17]) was 20%, the S.I. (Influenza virus Jap 305; [17]) was 1.34 and the “Survival Percent” value (Influenza virus Jap 305; [18]) was 10%. For the same compound, the S.I. (Influenza virus Jap 305; [18]) was 1.34, the “Survival Percent” value (Influenza virus Jap 305; [19]) was 60% and the S.I. (Influenza virus Jap 305; [19]) was 1.43. The “Survival Percent” value (Influenza virus Jap 305; [20]) was 60%, the S.I. (Influenza virus Jap 305; [20]) was 2.04 and the “Survival Percent” value (Influenza virus Jap 305; [21]) was 66%. The S.I. (Influenza virus Jap 305; [21]) was 1.43, the ACTIVITY [7] was “+ (active)” and the ACTIVITY [8] was “-”. It also gave an MIC [8, 16] of 30 µg/mL (≈ 113 µM), a log reduction at 5 mg/kg (Influenza PR8; PR8, 5 mg/kg IP) of 1.41 and a log reduction at 50 mg/kg (Influenza PR8; PR8, 50 mg/kg IP) of 1.69. For the same compound, the log reduction at 50 mg/kg (Influenza PR8; PR8, 50 mg/kg PO) was 1.21, the log reduction at 500 mg/kg (Influenza PR8; PR8, 500 mg/kg IP) was 1.87 and the log reduction at 500 mg/kg (Influenza PR8; PR8, 500 mg/kg PO) was 1.07. The inhibition at 250 µg (Herpes Simplex [9]) was 60%, the ACTIVITY [10] was “+” and the MIC [10, 16] was 15 to 16 µg/mL (≈ 56.5 to 60.3 µM). For the same compound, the ACTIVITY [11] was “+ (active)”, the ACTIVITY [12] was “+ (active)” and the ACTIVITY [13] was “+ (active)”. The ACTIVITY [14] was “+”, the ACTIVITY [15] was “+” and the MIC [15, 16] was 20 µg/mL (≈ 75.4 µM). The response vs control in vivo at 50 mg/kg (Influenza viruses; [22]) was 137%, the response vs control in vivo at 500 mg/kg (Influenza viruses; [22]) was 171% and the responders at 50 mg/kg (Influenza viruses; ip, read-out: Survival Percent) was 0%. It also gave a responders at 500 mg/kg (Influenza viruses; ip, read-out: Survival Percent) of 37.5%, a response vs control in vivo at 500 mg/kg (Influenza viruses; po, read-out: Survival Index (S.I.)) of 171% and a responders at 500 mg/kg (Influenza viruses; po, read-out: Survival Percent) of 33.3%.
